Patent US10981917B2, “Heterocyclic compound, its preparation method, and pharmaceutical composition comprising the same” (Daewoong Pharmaceutical Co., Ltd., priority 2017, dated 2021)

These molecules were tested against PRS (prolyl-tRNA synthetase) protein, PRS portion of EPRS (Homo sapiens (Human), UniProt P07814) (assay: PRS enzyme activity inhibition experiment ([3H]proline, liquid scintillation)). Details: purified PRS protein, 37° C. for 5 to 10 minutes.
Assay type: biochemical
Summary of the method: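 Values are % inhibition or IC50 ranges (A ≤100 nM, B 100–500 nM, C ≥500 nM) from [3H]proline incorporation measured by liquid scintillation. PRS portion of human EPRS, reacted 5–10 min at 37 °C in pH 7.4 phosphate buffer containing 5 mM ATP and tRNA, compound at 1 μM.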

PRS (prolyl-tRNA synthetase) protein, PRS portion of EPRS, sequence (P07814 1007-1512): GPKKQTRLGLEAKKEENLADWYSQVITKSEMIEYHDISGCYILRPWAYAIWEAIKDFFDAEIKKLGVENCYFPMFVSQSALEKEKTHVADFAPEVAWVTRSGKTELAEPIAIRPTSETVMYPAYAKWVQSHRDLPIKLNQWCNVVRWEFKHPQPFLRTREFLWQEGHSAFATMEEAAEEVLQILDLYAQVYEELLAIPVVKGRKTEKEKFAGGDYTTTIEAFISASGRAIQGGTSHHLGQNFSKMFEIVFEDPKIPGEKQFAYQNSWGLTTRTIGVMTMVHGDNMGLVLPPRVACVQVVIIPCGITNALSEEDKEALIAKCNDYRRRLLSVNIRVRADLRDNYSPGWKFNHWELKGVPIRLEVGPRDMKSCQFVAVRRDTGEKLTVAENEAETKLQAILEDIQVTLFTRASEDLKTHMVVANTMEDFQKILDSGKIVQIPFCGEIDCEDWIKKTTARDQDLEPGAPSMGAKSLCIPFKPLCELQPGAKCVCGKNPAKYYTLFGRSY

Row | Structure (SMILES) | IC50 [nM]
1 | CC(C)Cn1cc(-c2cc(Cl)cc3ncn(CCC[C@H]4NCCC[C@@H]4O)c23)cn1 [Example 115, (2R,3S)-2-(3-(5-chloro-7-(1-isobutyl-1H-pyrazol-4-yl)-1H-benzo[d]imidazol-1-yl)propyl)piperidin-3-ol] | 100 to 500
2 | O=C(O)c1cn(C/C=C/[C@H]2NCCC[C@@H]2O)c2cc(Cl)ccc12 [Example 206, 6-chloro-1-((E)-3-((2R,3S)-3-hydroxypiperidin-2-yl)allyl)-1H-indole-3-carboxylic acid] | ≥ 500
3 | O=c1[nH]c2cc(Br)ccc2n1CCC[C@H]1NCCC[C@@H]1O [Example 160, 5-bromo-1-(3-((2R,3S)-3-hydroxypiperidin-2-yl)propyl)-1H-benzo[d]imidazol-2(3H)-one] | ≥ 500
4 | Cn1cc(-c2cc(Cl)cc3ncn(CCC[C@H]4NCCC[C@@H]4O)c23)cn1 [Example 97, (2R,3S)-2-(3-(5-chloro-7-(1-methyl-1H-pyrazol-4-yl)-1H-benzo[d]imidazol-1-yl)propyl)piperidin-3-ol] | ≤ 100
5 | Cc1c(Br)cnc2c1ncn2C/C=C/[C@H]1NCCC[C@@H]1O [Example 186, (2R,3S)-2-((E)-3-(6-bromo-7-methyl-3H-imidazo[4,5-b]pyridin-3-yl)prop-1-en-1-yl)piperidin-3-ol] | 100 to 500
6 | O[C@H]1CCCN[C@@H]1CCCn1cnc2cccc(OC(F)(F)F)c21 [Example 17, (2R,3S)-2-(3-(7-(trifluoromethoxy)-1H-benzo[d]imidazol-1-yl)propyl)piperidin-3-ol] | ≥ 500
7 | O[C@H]1CCCN[C@@H]1CCCn1cnc2cc(C(F)(F)F)cc(-c3cn[nH]c3)c21 [Example 82, (2R,3S)-2-(3-(7-(1H-pyrazol-4-yl)-5-(trifluoromethyl)-1H-benzo[d]imidazol-1-yl)propyl)piperidin-3-ol] | ≥ 500
8 | O=[N+]([O-])c1ccc2c(ncn2CCC[C@H]2NCCC[C@@H]2O)c1Cl [Example 77, (2R,3S)-2-(3-(4-chloro-5-nitro-1H-benzo[d]imidazol-1-yl)propyl)piperidin-3-ol] | 100 to 500
9 | O[C@H]1CCCN[C@@H]1CCCn1cnc2nc(Cl)c(Cl)cc21 [Example 127, (2R,3S)-2-(3-(5,6-dichloro-1H-imidazo[4,5-b]pyridin-1-yl)propyl)piperidin-3-ol] | 100 to 500
10 | O[C@H]1CCCN[C@@H]1CCCn1cnc2cc(Br)ccc21 [Example 3, (2R,3S)-2-(3-(5-bromo-1H-benzo[d]imidazol-1-yl)propyl)piperidin-3-ol] | ≥ 500
11 | Cc1c(Cl)ccc2c1ncn2CCC[C@H]1NCCC[C@@H]1O [Example 46, (2R,3S)-2-(3-(5-chloro-4-methyl-1H-benzo[d]imidazol-1-yl)propyl)piperidin-3-ol] | ≤ 100
12 | O[C@H]1CCCN[C@@H]1/C=C(\F)Cn1cnc2cc(Cl)c(Cl)cc21 [Example 219, (2R,3S)-2-((Z)-3-(5,6-dichloro-1H-benzo[d]imidazol-1-yl)-2-fluoroprop-1-en-1-yl)piperidin-3-ol] | ≥ 500
13 | Oc1nc2ccccc2n1CCC[C@H]1NCCC[C@@H]1O [Example 143, 1-(3-((2R,3S)-3-hydroxypiperidin-2-yl)propyl)-1H-benzo[d]imidazol-2-ol] | ≥ 500
14 | O[C@H]1CCCN[C@@H]1CCCn1cnc2cc(C(F)(F)F)cc(Br)c21 [Example 71, (2R,3S)-2-(3-(7-bromo-5-(trifluoromethyl)-1H-benzo[d]imidazol-1-yl)propyl)piperidin-3-ol] | 100 to 500
15 | O=C(O)c1cn(C/C=C/[C@H]2NCCC[C@@H]2O)c2c(Cl)cccc12 [Example 207, 7-chloro-1-((E)-3-((2R,3S)-3-hydroxypiperidin-2-yl)allyl)-1H-indole-3-carboxylic acid] | ≥ 500
